For the assay, the target named is T1, hURAT1 (Homo sapiens, UniProt Q96S37).
T1 sequence (Q96S37 1-553): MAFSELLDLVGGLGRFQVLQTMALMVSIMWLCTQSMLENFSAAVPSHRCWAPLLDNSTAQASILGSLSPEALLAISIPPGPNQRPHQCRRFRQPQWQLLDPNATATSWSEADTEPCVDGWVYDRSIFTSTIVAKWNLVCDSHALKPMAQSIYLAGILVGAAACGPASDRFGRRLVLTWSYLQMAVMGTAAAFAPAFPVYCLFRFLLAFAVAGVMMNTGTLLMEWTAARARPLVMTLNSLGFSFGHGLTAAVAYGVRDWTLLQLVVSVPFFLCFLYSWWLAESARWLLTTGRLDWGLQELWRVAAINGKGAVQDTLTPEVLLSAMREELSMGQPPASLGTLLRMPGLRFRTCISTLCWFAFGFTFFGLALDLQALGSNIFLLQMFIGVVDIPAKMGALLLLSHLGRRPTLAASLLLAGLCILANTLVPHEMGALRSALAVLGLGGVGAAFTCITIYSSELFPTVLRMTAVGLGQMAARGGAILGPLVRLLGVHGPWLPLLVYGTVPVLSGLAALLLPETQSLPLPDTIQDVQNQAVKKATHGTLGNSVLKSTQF
As to the kind of experiment: Inhibition assay of uric acid transport in HEK293-hURAT1 transfection cell line (14C-uric acid uptake). It counts as cell-based. The settings on record: for inhibition at 0.5 µM: compound concentration 500 nM, HEK293-hURAT1 stable cells, 14C-uric acid, mean of three tests ±SD, read-out: Inhibition rate of uric acid transport, ±SD (%); for inhibitory effects of uric acid transport in HEK293-hURAT1 transfection cell line, in words: in comparison with control drug Zurampic at 500 nM. On the procedure: Inhibition Assay of Uric Acid Transport for Compounds in HEK293-hURAT1 Transfection Cell Line
1. Construction of a HEK293 stable cell line with high expression of hURAT1:
The plasmid pCMV6-hURAT1 was transfected into HEK293 cells, then the stable strain was obtained by the G418 (final concentration of 500 μg/mL) resistance screening, which is the high expression of hURAT1 transporter membrane protein. It can be used for in vitro inhibition assay of uric acid transporter hURAT1 (Weaver Y M, Ehresman D J, Butenhoff J L, et al. Roles of rat renal organic anion transporters in transporting perfluorinated carboxylates with different chain lengths. Toxicological Sciences, 2009, 113(2):305-314).
2. Coating 24-well plate: to a coated 24-well plate was added 200 μl of 0.1 mg/mL poly-lysine per well and the plate was left overnight. Poly-lysine was removed from wells. The wells were cleaned thoroughly with steriled water and dried for use.
3. To the above coated 24-well plate was added HEK293-hURAT1 stable cells (2×10^5 cells per well). The cells were cultured at 37° C. under 5% CO2 for 3 days.
4. Preparation of HBSS buffer: the following reagents were weighed according to the final concentration of 125 mM sodium gluconate, 4.8 mM potassium gluconate, 1.3 mM calcium gluconate, 1.2 mM KH2PO4, 1.2 mM MgSO4, 5.6 mM glucose and 25 mM HEPES. Deionized water was added to reach the corresponding volume, and the solution was fully mixed to give HBSS (pH value: 7.4). The buffer was stored at −20° C. in a refrigerator.
5. At the day of experiment, the HBSS buffer was taken out of the refrigerator and warmed to 37° C. in a water bath. Taken out the 24-well plate with HEK293-hURAT1 stable cells, removed the culture medium and washed cells with HBSS, then add 160 μL of HBSS and 20 μL test compound per well. The final concentration of tested compound per well is 500 nM. The blank control well contains only 180 μL of HBSS without tested compound. The plate was placed at room temperature for 10 minutes.
6. To each well was added 20 μL of 50 μM ^14C-uric acid. The 24-well plate was placed at room temperature for 20 minutes.
7. The solution in each well was removed and the cells in each well were washed with the pre-cooled HBSS buffer. To each well was added 0.2 M NaOH to dissolve the cells. The solution containing cell fragments was collected and the appropriate amount of scintillation liquid was added. The radioisotope intensity of the ^14C-Uric acid (CPM value) was then detected by using PerkinElmer MicroBeta Trilux 1450 liquid scintillation analyzer.
8. In HEK293 transfected cell lines, the formula for calculating the inhabitation rate of uric acid transport for compounds was shown as below (Table 1), the CPM value of the tested compounds was represented by CPM(tested compound) and the CPM value of the blank control was represented by CPM(blank control). All tests were repeated three times, and the results were averaged and the standard deviation (SD) was calculated: Inhibition rate(%)(500 nM compound concentration)=(CPM(blank control)−CPM(test compound))/CPM(blank control)×100%

The results in this text go back to patent US11597725B2, “URAT1 inhibitor for promoting uric acid excretion” (JIANGSU ATOM BIOSCIENCE AND PHARMACEUTICAL CO., LTD., priority 2017, dated 2023).

Structures are written as SMILES.

In general, inhibition refers to the relative decrease from the control value, in per cent. On to `CCc1nc2n(c1C(=O)c1cc(Br)c(O)c(C#N)c1)CCCC2` [Compound 17, 3-bromo-5-(2-ethyl-5,6,7,8-tetrahydroimidazo[1,2-a]pyridine-3-carbonyl)-2-hydroxybenzonitrile], for which the inhibition at 0.5 µM was 47.46 ± 0.14% and the “inhibitory effects of uric acid transport in HEK293-hURAT1 transfection cell line, in words” value (from here on “inhibitory effects”) was “very good inhibitory effects”.

Regarding `CCc1nc2n(c1C(=O)c1cc(Br)c(O)c(Br)c1)CCC(OC)C2` (stereo not shown) [Compound 25, (3,5-dibromo-4-hydroxyphenyl)-(2-ethyl-7-methoxy-5,6,7,8-tetrahydroimidazo[1,2-a]pyridin-3-yl)methanone], the inhibition at 0.5 µM was 47.6 ± 4.12% and the “inhibitory effects” value was “very good inhibitory effects”.

Take `CCc1nc2n(c1C(O)c1cc(Br)c(O)c(C#N)c1)CCCC2` (stereo not shown) [Compound 63, 3-bromo-5-((2-ethyl-5,6,7,8-tetrahydroimidazo[1,2-a]pyridin-3-yl)hydroxymethyl)-2-hydroxyl benzonitrile]: the inhibition at 0.5 µM came out at 42.3 ± 2.6%.

On to `[2H]C1c2nc(CC)c(C(=O)c3cc(Br)c(O)c(Br)c3)n2C([2H])C([2H])([2H])C1[2H]` (stereo not shown) [Compound 10, (3,5-dibromo-4-hydroxyphenyl)(5,6,6,7,8-pentadeuterio-2-ethyl-5,6,7,8-tetrahydroimidazo[1,2-a]pyridin-3-yl)methanone], for which the inhibition at 0.5 µM was 47.5 ± 3.12% and the “inhibitory effects” value was “very good inhibitory effects”.

As for `CCc1nc2n(c1C(=O)c1cc(Br)c(O)c(Br)c1)CCCC2` [Compound 5, (3,5-dibromo-4-hydroxyphenyl)(2-ethyl-5,6,7,8-tetrahydroimidazo[1,2-a]pyridine-3-yl)methanone], the inhibition at 0.5 µM turned out to be 53.4 ± 4.54% and the “inhibitory effects” value is on record as “very good inhibitory effects”.

As to `CCc1nc2n(c1C(=O)c1cc(C)c(O)c(Br)c1)CCCC2` [Compound 48, (3-bromo-4-hydroxy-5-methylphenyl)(2-ethyl-5,6,7,8-tetrahydroimidazo[1,2-a]pyridin-3-yl)methanone], the inhibition at 0.5 µM turned out to be 46.1 ± 4.91% and the “inhibitory effects” value is “very good inhibitory effects”.

On to `CCc1nc2n(c1C(=O)c1cc(Br)c(O)c(Br)c1)CCC(O)C2` (stereo not shown) [Compound 23, (3,5-dibromo-4-hydroxyphenyl)(2-ethyl-7-hydroxy-5,6,7,8-tetrahydroimidazo[1,2-a]pyridine-3-yl)methanone], for which the inhibition at 0.5 µM amounted to 47.5 ± 1.65% and the “inhibitory effects” value was “very good inhibitory effects”.

As to `CCc1nc2n(c1C(O)c1cc(Br)c(O)c(Br)c1)CCCC2` (stereo not shown) [Compound 42, 2,6-dibromo-4-[(2-ethyl-5,6,7,8-tetrahydroimidazo[1,2-a]-pyridin-3-yl)hydroxymethyl]phenol], the inhibition at 0.5 µM was 47.6 ± 3.08% and the “inhibitory effects” value is recorded as “very good inhibitory effects”.

As for `CCn1nc2c(c1C(=O)c1cc(Br)c(O)c(Br)c1)COCC2` [Compound 58], the inhibition at 0.5 µM was 38.6 ± 6.3%.

Take `CCc1nn2c(c1C(=O)c1cc(Br)c(O)c(Br)c1)CCCC2` [Compound 32]: the inhibition at 0.5 µM was 43.4 ± 2.4%.

As to `CCc1nc2n(c1C(=O)c1cc(Br)c(O)c(Br)c1)CC(C)CC2` (stereo not shown) [Compound 43, (3,5-dibromo-4-hydroxyphenyl)(2-ethyl-6-methyl-5,6,7,8-tetrahydroimidazo[1,2-a]pyridin-3-yl)methanone], the inhibition at 0.5 µM was 53.2 ± 9.36% and the “inhibitory effects” value is reported as “very good inhibitory effects”.

As to `O=C(O)CSc1nnc(Br)n1-c1ccc(C2CC2)c2ccccc12` [Zurampic, Lesinurad, reference compound], the inhibition at 0.5 µM was 27.6 ± 2.89%.

`CCn1nc2c(c1C(=O)c1cc(Br)c(O)c(Br)c1)CCCC2` [Compound 41, (3,5-dibromo-4-hydroxyphenyl)(2-ethyl-4,5,6,7-tetrahydro-2H-indazol-3-yl)methanone]: the inhibition at 0.5 µM amounted to 46.2 ± 6.18% and the “inhibitory effects” value is recorded as “very good inhibitory effects”.
